# Results from patent US20250381165A1, “Method of Use for Benzofuran Compounds” (Tampa Bay Research Institute, Inc., priority 2024, published 2025).
# Legend:
# [1] = target: T1, MHC class I/SIINFEKL complex on DC2.4 (Mus musculus, UniProt P01901); assay: SIINFEKL binding to DC2.4, flow cytometry with 25-D1.16 antibody; type: cell-based, murine
# T1 construct: DC2.4 are a C57Bl/6 lineage murine cell line and as such they express MHC class I H-2Kb and H-2Db; endogenous in cells; host or cells: DC2.4 (murine dendritic cell line, from Dr. Kenneth Rock)
# T1 sequence (P01901 22-369): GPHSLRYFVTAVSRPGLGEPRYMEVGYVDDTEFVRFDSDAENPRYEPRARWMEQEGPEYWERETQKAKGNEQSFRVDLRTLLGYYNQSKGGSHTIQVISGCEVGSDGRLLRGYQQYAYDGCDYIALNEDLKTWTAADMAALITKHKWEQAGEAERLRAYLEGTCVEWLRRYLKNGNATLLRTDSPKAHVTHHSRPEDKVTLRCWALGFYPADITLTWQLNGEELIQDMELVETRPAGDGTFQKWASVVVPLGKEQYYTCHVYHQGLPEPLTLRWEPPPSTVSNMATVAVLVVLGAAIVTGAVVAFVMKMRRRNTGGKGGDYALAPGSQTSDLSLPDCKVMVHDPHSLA
# T1 sequence (P01887 21-119 partner): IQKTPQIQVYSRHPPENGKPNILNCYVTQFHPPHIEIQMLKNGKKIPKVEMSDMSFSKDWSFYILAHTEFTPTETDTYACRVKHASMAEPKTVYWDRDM
# Description: To detect binding of peptides to MHC class I H2Kb molecules on various murine cells, the cells were cultured as previously described and treated for various times as indicated in results and figure legends. Cells were centrifuged and washed using cold FACS buffer (DPBS with 5% FBS, 2 mM EDTA, 0.1% sodium azide). Cells were blocked using Fc block (bioLegend™; cat. no. 101320) for 10 min to 15 min to inhibit non-specific binding, followed by staining with fluorophore-conjugated antibody PE-labeled anti-MHC I/SIINFEKL (clone 25-D1.16; Invitrogen™, Thermo Fisher Scientific Inc., Waltham, MA; cat. no. 12-5743-82), for 30 min at 4° C. After washing, the cells were subjected to flow cytometric analysis with the Attune NxT Flow Cytometer (Invitrogen). Cells were gated based on live single-cell populations and positives were assessed using isotype controls and fluor-minus-one analysis when needed. Data were analyzed using the Attune NxT software or FlowJo versions 10.7 and 10.8.
# To evaluate the potential of BzFβ to enhance peptide loading under conditions used to prepare DC vaccines, 1×10^6 DC2.4 cells were pretreated with 50 μg/mL BzFβ for 1 h in a total volume of 200 μL OptiMEM, then pulsed for 1 h with concentrations of SIINFEKL (1-10 μg/mL) often used for the in vitro production of DC vaccines. The cells were then stained for 30 min in 200 μL HBSS/2% FCS containing 0.4 μg PE-labeled MHC class I/SIINFEKL specific antibody, 25-D1.16.
# By using an MHC class I H-2K^b specific antibody, a relative comparison of the surface MHC class I was measured before and after BzFβ treatment of DC2.4 and IMG cells. These cells were treated with 25 μg/mL BzFβ for 0-4 h. Cells were centrifuged and washed using cold FACS buffer (DPBS with 5% FBS, 2 mM EDTA, 0.1% sodium azide). […] Cells were gated based on live single-cell populations and positives were assessed using isotype controls and fluor-minus-one analysis when needed. Data were analyzed using the Attune NxT software or FlowJo versions 10.7 and 10.8.
# Cultured cells were treated for various times as indicated in results and figure legends. […] Cells were gated based on live single-cell populations and positives were assessed using isotype controls and fluor-minus-one analysis when needed. Data were analyzed using the Attune NxT software or FlowJo versions 10.7 and 10.8.
# [2] = tested on: MHC class I H-2Kb on IMG cells; assay: Surface MHC class I H-2Kb on IMG cells (AF6-88.5.5.3 flow cytometry); type: cell-based, murine; conditions: 25 μg/mL
# Description: By using an MHC class I H-2K^b specific antibody, a relative comparison of the surface MHC class I was measured before and after BzFβ treatment of DC2.4 and IMG cells. […] Cells were centrifuged and washed using cold FACS buffer (DPBS with 5% FBS, 2 mM EDTA, 0.1% sodium azide). Cells were blocked with Fc block (bioLegend™; cat. no. 101320) for 10 min to 15 min to inhibit non-specific binding, followed by staining with fluorophore-conjugated antibodies; one set of cells was stained with the PE-labeled MHC/SIINFEKL specific antibody (clone 25-D1.16, Invitrogen™, Thermo Fisher Scientific Inc., Waltham, MA; cat. no. 12-5743-82), and the other set was stained with the PE-labeled MHC class I H-2Kb specific antibody (AF6-88.5.5.3,Invitrogen™, Thermo Fisher Scientific Inc., Waltham, MA; cat. no. 12-5958-82) PE-labeled MHC class I H-2kb specific (clone AF6-88.5.5.3; Invitrogen™, Thermo Fisher Scientific Inc., Waltham, MA; cat. no. 12-5958-82), for 30 min at 4° C. After washing, the cells were subjected to flow cytometric analysis with the Attune NxT Flow Cytometer (Invitrogen). Cells were gated based on live single-cell populations and positives were assessed using isotype controls and fluor-minus-one analysis when needed. Data were analyzed using the Attune NxT software or FlowJo versions 10.7 and 10.8.
structure (smiles),measurement,setting,value
"O=C(O)/C=C/c1ccc2occc2c1 [BzFβ, (2E)-3-(1-benzofuran-5-yl)prop-2-enoic acid]",peptide binding under DC vaccine conditions,"[1]; 50 μg/mL BzFβ 1 h, then 1 h SIINFEKL 1-10 μg/mL",significant enhancement of peptide binding
same,SIINFEKL peptide binding to DC2.4,"[1]; 25 or 50 μg/mL, up to 24 h",significantly enhance peptide binding
same,peptide detected per cell,"[1]; 2 h pretreatment 50 μg/mL BzFβ, then 1 h 1, 5 or 10 μg/mL SIINFEKL",significantly more peptide was detected per cell
same,binding of SIINFEKL to surface MHC class I,"[1]; DC2.4, 25 μg/mL BzFβ 0-4 h",able to enhance the binding of SIINFEKL
same,overall surface expression (MFI) of MHC class I,[2]; 1-4 h,no significant effect
same,overall surface expression (MFI) of MHC class I,[2]; 24 h,significant increase
